Results taken from patent US4650799A, “Bis-dioxopiperazine derivatives, process for their preparation, antitumor agents comprising them and compositions containing them” (Zenyaku Kogyo Kabushiki Kaisha, priority 1983, dated 1987).

What was measured:
[1] = Acute Toxicity Test; conditions: mouse, in vivo
Method: The test group to which the compound of the present invention was administered consisted of ten mice. Five weeks old male mice (ddY, 23±2 g of body weight) were employed as test animals.

[2] = tested on: Colon adenocarcinoma No. 38; experiment: Animal Test on Colon Adenocarcinoma No. 38 (growth inhibition); type: in vivo, mice [BDF1 (C57BL/6×DBA/2)]; conditions: 60 mg/kg daily, orally, 8 days; tumor weight on 30th day
Method: (§1) Antitumor activities of bis-dioxopiperazine derivatives which the present invention concerns were verified by the growth inhibition or the increase of life span in experimental animals with syngenic tumors such as P388 lymphocytic leukemia, Lewis lung carcinoma, B-16 melanoma and Colon Adenocarcinoma No. 38 as shown below.
(§2) The treated group to which the compound of the present invention was administered consisted of seven mice, while the control group consisted of ten mice. Six weeks old male mice [BDF1 (C57BL/6×DBA/2), 25±2 g of body weight] were employed as host animals.
Tumor cells (40 mg of fragment) of Colon adenocarcinoma No. 38 were transplanted subcutaneously in inguinal region of each mouse. The treatment began one day after the transplantation and the prescribed dose of each test compound was administered orally to the mice once a day for 8 days.
On the 30th day after the transplantation, the tumors of all the mice were excised and weighed. Antitumor activity of the test compound was evaluated by the rate of growth inhibition (G.I.%) which was calculated in the same manner as used in the animal test on Lewis lung carcinoma.

[3] = tested on: Lewis lung carcinoma; experiment: Animal Test on Lewis Lung Carcinoma (growth inhibition, metastasis); type: in vivo, mice [BDF1 (C57BL/6×DBA/2)]; conditions: orally, 8 days, tumor weight on 20th day
Method: as §1, §2
Tumor cells (5×10^5) of Lewis lung carcinoma were transplanted subcutaneously in inguinal region of each mouse. The treatment began one day after the transplantation and the prescribed dose of each test compound was administered orally to the mice once a day for 8 days.
On the 20th day after the transplantation, the tumors of all the mice were excised and weighed. Antitumor activity of the test compound was evaluated by the rate of growth inhibition (G.I.%) which was calculated with the following formula. [formula] T: mean tumor weight of treated mice C: mean tumor weight of control mice

[4] = tested on: P388 lymphocytic leukemia; experiment: Animal Test on P388 Lymphocytic Leukemia (increase in life span); type: in vivo, mice [CDF1 (BALB/c×DBA/2)]; conditions: Mus musculus, P388, ip, i.p.; for ILS at 20 mg/kg / ILS at 60 mg/kg: 216 h; for ILS at 20 mg/kg: 20 mg/kg × 9 days; for ILS at 60 mg/kg: 60 mg/kg × 9 days; for ILS at 200 mg/kg: 200 mg/kg × 2 (1st and 5th day)
Method: The treated group to which the compound of the present invention was administered consisted of seven mice, while the control group consisted of ten mice. Six weeks old male mice [CDF1 (BALB/c×DBA/2), 25±2 g of body weight] were employed as host animals.
Tumor cells (1.0×10^6) of P388 lymphocytic leukemia were transplanted intraperitoneally into each mouse. The treatment began one day after the transplantation and the prescribed dose of each test compound was administered intraperitoneally to the mice once a day for 9 days or on the 1st and 5th day.
Antitumor activity of the test compound was evaluated by the rate of increase in life span (I.L.S.%) which was calculated with the following formula. [formula] T: mean survival time of treated mice C: mean survival time of control mice

[5] = tested on: B-16 melanoma; experiment: Animal Test on B-16 Melanoma (increase in life span); type: in vivo, mice [BDF1 (C57BL/6×DBA/2)]; conditions: Mus musculus, B16, ip, 192 h, i.p., 8 days; for ILS at 20 mg/kg: 20 mg/kg daily; for ILS at 30 mg/kg: 30 mg/kg daily
Method: The treated group to which the compound of the present invention was administered consisted of seven mice, while the control group consisted of ten mice. Six weeks old male mice [BDF1 (C57BL/6×DBA/2) 25±2 g of body weight] were employed as host animals.
Tumor cells (5×10^5) of B-16 melanoma were transplanted intraperitoneally into each mouse. The treatment began one day after the transplantation and the prescribed dose of each test compound was administered intraperitoneally to the mice once a day for 8 days.
Antitumor activity of the test compound was evaluated by the rate of increase in life span (I.L.S.%) which was calculated in the same manner as used in the animal test on P388 lymphocytic leukemia.

[6] = protic polar solvents such as water, lower alcohol; background statement on known compound; cited from earlier work

Row | SMILES | ILS at 20 mg/kg [4] | ILS at 200 mg/kg [4] | ILS at 20 mg/kg [5] | other results
1 | CC(=O)OCN1C(=O)CN(CCN2CC(=O)N(COC(C)=O)C(=O)C2)CC1=O [1,2-Bis(4-acetoxymethyl-3,5-dioxopiperazin-1-yl)ethane] | 63% | 45% | 39% | LD50 ([1]; ip, 14 days observation): > 1000 mg/kg; LD50 ([1]; po): > 2000 mg/kg; G.I. [2]: 68.0%; G.I. ([3]; 60 mg/kg daily): 79.6%; ILS at 60 mg/kg [4]: 118%
2 | O=C(CCl)OCN1C(=O)CN(CCN2CC(=O)N(COC(=O)CCl)C(=O)C2)CC1=O [1,2-Bis(4-chloroacetoxymethyl-3,5-dioxopiperazin-1-yl)ethane] | 54% | 38% | 38% | G.I. ([3]; 50 mg/kg daily): 66.8%
3 | COC(=O)OCN1C(=O)CN(CCN2CC(=O)N(COC(=O)OC)C(=O)C2)CC1=O [1,2-Bis(4-methoxycarbonyloxymethyl-3,5-dioxopiperazin-1-yl)ethane] | 75% | 103% |  | LD50 ([1]; ip, 14 days observation): ~500 mg/kg; LD50 ([1]; po): > 2000 mg/kg; G.I. ([3]; 60 mg/kg daily): 57.7%; ILS at 30 mg/kg [5]: 78%
4 | O=C(OCN1C(=O)CN(CCN2CC(=O)N(COC(=O)c3ccccc3Cl)C(=O)C2)CC1=O)c1ccccc1Cl [1,2-Bis(4-o-chlorobenzoyloxymethyl-3,5-dioxopiperazin-1-yl)ethane] | 55% | 90% | 65% | G.I. ([3]; 40 mg/kg daily): 43.7%
5 | O=C(Cc1ccccc1Cl)OCN1C(=O)CN(CCN2CC(=O)N(COC(=O)Cc3ccccc3Cl)C(=O)C2)CC1=O [1,2-Bis(4-o-chlorophenylacetoxymethyl-3,5-dioxopiperazin-1-yl)ethane] | 65% | 83% |  | 
6 | COc1ccccc1C(=O)OCN1C(=O)CN(CCN2CC(=O)N(COC(=O)c3ccccc3OC)C(=O)C2)CC1=O [1,2-Bis(4-o-methoxybenzoyloxymethyl-3,5-dioxopiperazin-1-yl)ethane] | 113% | 99% |  | 
7 | CC(C)(C)C(=O)OCN1C(=O)CN(CCN2CC(=O)N(COC(=O)C(C)(C)C)C(=O)C2)CC1=O [1,2-Bis(4-pivaloyloxymethyl-3,5-dioxopiperazin-1-yl)ethane] | 53% | 66% |  | 
8 | O=C(OCN1C(=O)CN(CCN2CC(=O)N(COC(=O)c3cccs3)C(=O)C2)CC1=O)c1cccs1 [1,2-Bis[4-(2-thenoyloxymethyl)-3,5-dioxopiperazin-1-yl]ethane] |  | 118% |  | 
9 | O=C(OCN1C(=O)CN(CCN2CC(=O)N(COC(=O)c3ccccc3)C(=O)C2)CC1=O)c1ccccc1 [1,2-bis(4-benzoyloxymethyl-3,5-dioxopiperazin-1-yl)ethane] | 68% | 107% | 87% | 
10 | CCOC(=O)OCN1C(=O)CN(CCN2CC(=O)N(COC(=O)OCC)C(=O)C2)CC1=O [1,2-bis(4-ethoxycarbonyloxymethyl-3,5-dioxopiperazin-1-yl)ethane] | 48% | 45% |  | 
11 | CC(C)COC(=O)OCN1C(=O)CN(CCN2CC(=O)N(COC(=O)OCC(C)C)C(=O)C2)CC1=O [1,2-bis(4-isobutoxycarbonyloxymethyl-3,5-dioxopiperazin-1-yl)ethane] | 78% | 138% | 86% | LD50 ([1]; ip, 14 days observation): > 850 mg/kg; LD50 ([1]; po): > 1000 mg/kg; G.I. [2]: 68.8%; G.I. ([3]; 50 mg/kg daily): 54.4%; ILS at 60 mg/kg [4]: 175%
12 | O=C1CN(CCN2CC(=O)N(CN3CCOCC3)C(=O)C2)CC(=O)N1CN1CCOCC1 [1,2-bis(4-morpholinomethyl-3,5-dioxopiperazin-1-yl)ethane, reference compound] | 90% |  | 40% | LD50 ([1]; ip, 14 days observation): 280 mg/kg; LD50 ([1]; po): > 1000 mg/kg; G.I. [2]: 72.8%; G.I. ([3]; 60 mg/kg daily): 22.6%; ILS at 100 mg/kg ([4]; 100 mg/kg × 2 (1st and 5th day)): 60%; stability in protic polar solvents [6]: extremely unstable in the protic polar solvents such as water, lower alcohol and so on
13 | O=C(OCN1C(=O)CN(CCN2CC(=O)N(COC(=O)c3ccccc3F)C(=O)C2)CC1=O)c1ccccc1F [1,2-bis(4-o-fluorobenzoyloxymethyl-3,5-dioxopiperazin-1-yl)ethane] |  | 113% |  | 
14 | O=C(CSc1ccc(Br)cc1)OCN1C(=O)CN(CCN2CC(=O)N(COC(=O)CSc3ccc(Br)cc3)C(=O)C2)CC1=O [1,2-bis(4-p-bromophenylthioacetoxymethyl-3,5-dioxopiperazin-1-yl)ethane] |  | 108% |  | 
15 | O=C(COc1ccc(Cl)cc1)OCN1C(=O)CN(CCN2CC(=O)N(COC(=O)COc3ccc(Cl)cc3)C(=O)C2)CC1=O [1,2-bis(4-p-chlorophenoxyacetoxymethyl-3,5-dioxopiperazin-1-yl)ethane] | 40% | 94% |  | 
16 | O=C(CSc1ccc(F)cc1)OCN1C(=O)CN(CCN2CC(=O)N(COC(=O)CSc3ccc(F)cc3)C(=O)C2)CC1=O [1,2-bis(4-p-fluorophenylthioacetoxymethyl-3,5-dioxopiperazin-1-yl)ethane] |  | 120% |  | ILS at 40 mg/kg ([5]; 40 mg/kg daily): 83%
17 | COc1ccc(C=CC(=O)OCN2C(=O)CN(CCN3CC(=O)N(COC(=O)C=Cc4ccc(OC)cc4)C(=O)C3)CC2=O)cc1 [1,2-bis(4-p-methoxycinnamoyloxymethyl-3,5-dioxopiperazin-1-yl)ethane] | 78% | 36% |  | 
18 | O=C(Cc1ccccc1)OCN1C(=O)CN(CCN2CC(=O)N(COC(=O)Cc3ccccc3)C(=O)C2)CC1=O [1,2-bis(4-phenylacetoxymethyl-3,5-dioxopiperazin-1-yl)ethane] | 143% | 204% | 83% | 
19 | O=C(COc1cc(Cl)c(Cl)cc1Cl)OCN1C(=O)CN(CCN2CC(=O)N(COC(=O)COc3cc(Cl)c(Cl)cc3Cl)C(=O)C2)CC1=O [1,2-bis[4-(2,4,5-trichlorophenoxyacetoxymethyl)-3,5-dioxopiperazin-1-yl]ethane] | 65% | 94% |  | 
20 | O=C(OCN1C(=O)CN(CCN2CC(=O)N(COC(=O)c3ccco3)C(=O)C2)CC1=O)c1ccco1 [1,2-bis[4-(2-furoyloxymethyl)-3,5-dioxopiperazin-1-yl]ethane] |  | > 200% | 88% | 
21 | CC(C)(Oc1ccc(Cl)cc1)C(=O)OCN1C(=O)CN(CCN2CC(=O)N(COC(=O)C(C)(C)Oc3ccc(Cl)cc3)C(=O)C2)CC1=O [1,2-bis[4-(2-p-chlorophenoxy-2-methylpropionyloxymethyl)-3,5-dioxopiperazin-1-yl]ethane] | 63% | 114% |  | ILS at 30 mg/kg [5]: 86%
22 | CC(=O)Oc1ccc(C=CC(=O)OCN2C(=O)CN(CCN3CC(=O)N(COC(=O)C=Cc4ccc(OC(C)=O)c(OC(C)=O)c4)C(=O)C3)CC2=O)cc1OC(C)=O [1,2-bis[4-(3,4-diacetoxycinnamoyloxymethyl)-3,5-dioxopiperazin-1-yl]ethane] | 35% | 51% |  | 
23 | O=C(COc1ccc(Cl)cc1Cl)OCN1C(=O)CN(CCN2CC(=O)N(COC(=O)COc3ccc(Cl)cc3Cl)C(=O)C2)CC1=O [1.2-Bis[4-(2,4-dichlorophenoxyacetoxymethyl)-3,5-dioxopiperazin-1-yl]ethane] | 49% | 72% | 35% | ILS at 60 mg/kg [4]: 105%
